Some test systems named below: BT-549 breast; HS 578T breast; HT29 colon; NCI-H226 lung; NCI-H460 lung; OVCAR-5 ovarian; RXF 393 renal; SK-MEL-5 melanoma; TK-10 renal; UACC-257 melanoma.
Holding throughout (experiment): growth of human tumour cells (NCI), 48 h

The text below walks through data of PubChem BioAssay (NCI).

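Interpolation was linear, between the two tested concentrations surrounding the appropriate level; five concentrations were tested over 48 hours in 96-well plates. GI50: concentration for 50% inhibition of growth. TGI denotes the concentration required for complete inhibition of growth.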

`O=C1NC(=NCCCc2ccccc2)S/C1=C\c1ccc2ncccc2c1`: the GI50 in the assay on BT-549 breast was 4.58 µM; with HS 578T breast, 5.11 µM; in the assay on HT29 colon, 6.55 µM; in the assay on NCI-H226 lung, 4.2 µM; in the assay with NCI-H460 lung, 4.08 µM; in the assay with OVCAR-5 ovarian, 8.09 µM. Besides, the GI50 with RXF 393 renal is 3.89 µM; in the assay with SK-MEL-5 melanoma, 4.63 µM; with TK-10 renal, 4.15 µM; in the assay with UACC-257 melanoma, 6.73 µM. Besides, the TGI was 10.4 µM in the assay on BT-549 breast; 16 µM with HS 578T breast; over 21.4 µM with HT29 colon; 10.7 µM in the assay with NCI-H226 lung; 11.8 µM with NCI-H460 lung; over 25 µM in the assay on OVCAR-5 ovarian. Also, the TGI amounted to 10.4 µM in the assay on RXF 393 renal, 9.8 µM with SK-MEL-5 melanoma, 10.5 µM with TK-10 renal and 22.9 µM in the assay on UACC-257 melanoma.
